From patent US10131652B2, “Pyrimidinyloxy benzene derivatives as herbicides” (E. I. DU PONT DE NEMOURS AND COMPANY, priority 2014, dated 2018)

Legend:
Assay in all cases: Test F pre-/postemergence plant response
Assay type in all cases: in vivo
Details in all cases: scale 0 to 100
[1] = test system: Brazilian crabgrass (Digitaria horizontalis)
How it was run: (§1)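 In a greenhouse, compounds carried in a non-phytotoxic surfactant-containing solvent mixture were applied to soil at planting and to young 1- to 4-leaf plants. About two to three weeks (14 to 21 days) afterward, each species was compared with controls and rated visually from 0 to 100.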

[2] = test system: arrowleaf sida (Sida rhombifolia)
How it was run: as §1

[3] = test system: corn (Zea mays)
How it was run: as §1

[4] = test system: fall panicum (Panicum dichotomiflorum)
How it was run: as §1

[5] = test system: goosegrass (Eleusine indica)
How it was run: as §1

[6] = test system: hairy beggarticks (Bidens pilosa)
How it was run: as §1

[7] = test system: nightshade (eastern black nightshade, Solanum ptycanthum)
How it was run: as §1

[8] = test system: palmer pigweed (Amaranthus palmeri)
How it was run: as §1

[9] = test system: sandbur (southern sandbur, Cenchrus echinatus)
How it was run: as §1

[10] = test system: velvetleaf (Abutilon theophrasti)
How it was run: as §1

Cc1cc(-c2ccccc2Oc2ncc(Cl)cn2)on1 [Compound 58]
40: Plant response rating, Beggarticks ([6]; 8 g ai/ha Postemergence) | Plant response rating, Beggarticks ([6]; 16 g ai/ha Postemergence)
60: Plant response rating, Arrowleaf Sida ([2]; 31 g ai/ha Postemergence) | Plant response rating, Pigweed, Palmer ([8]; 125 g ai/ha Postemergence)
10: Plant response rating, Crabgrass, Brazil ([1]; 62 g ai/ha Postemergence) | Plant response rating, Crabgrass, Brazil ([1]; 125 g ai/ha Postemergence) | Plant response rating, Panicum, Fall ([4]; 62 g ai/ha Postemergence) | Plant response rating, Beggarticks ([6]; 62 g ai/ha Preemergence) | Plant response rating, Sandbur ([9]; 125 g ai/ha Postemergence)
80: Plant response rating, Nightshade ([7]; 31 g ai/ha Preemergence)
100: Plant response rating, Panicum, Fall ([4]; 125 g ai/ha Preemergence) | Plant response rating, Velvetleaf ([10]; 31 g ai/ha Preemergence) | Plant response rating, Velvetleaf ([10]; 125 g ai/ha Preemergence) | Plant response rating, Velvetleaf ([10]; Preemergence)
15: Plant response rating, Panicum, Fall ([4]; 8 g ai/ha Postemergence) | Plant response rating, Panicum, Fall ([4]; 125 g ai/ha Postemergence)
65: Plant response rating, Panicum, Fall ([4]; 31 g ai/ha Preemergence) | Plant response rating, Beggarticks ([6]; 125 g ai/ha Postemergence) | Plant response rating, Nightshade ([7]; 16 g ai/ha Preemergence)
70: Plant response rating, Arrowleaf Sida ([2]; 16 g ai/ha Postemergence) | Plant response rating, Pigweed, Palmer ([8]; 62 g ai/ha Postemergence) | Plant response rating, Velvetleaf ([10]; 16 g ai/ha Preemergence)
5: Plant response rating, Crabgrass, Brazil ([1]; 8 g ai/ha Postemergence) | Plant response rating, Crabgrass, Brazil ([1]; 16 g ai/ha Postemergence) | Plant response rating, Crabgrass, Brazil ([1]; 31 g ai/ha Postemergence) | Plant response rating, Corn ([3]; 62 g ai/ha Postemergence) | Plant response rating, Corn ([3]; 125 g ai/ha Postemergence) | Plant response rating, Goosegrass ([5]; 31 g ai/ha Preemergence) | Plant response rating, Goosegrass ([5]; Preemergence)
0: Plant response rating, Crabgrass, Brazil ([1]; 8 g ai/ha Preemergence) | Plant response rating, Crabgrass, Brazil ([1]; 16 g ai/ha Preemergence) | Plant response rating, Crabgrass, Brazil ([1]; 31 g ai/ha Preemergence) | Plant response rating, Arrowleaf Sida ([2]; 16 g ai/ha Preemergence) | Plant response rating, Corn ([3]; 8 g ai/ha Postemergence) | Plant response rating, Corn ([3]; 8 g ai/ha Preemergence) | Plant response rating, Corn ([3]; 16 g ai/ha Postemergence) | Plant response rating, Corn ([3]; 16 g ai/ha Preemergence) | Plant response rating, Corn ([3]; 31 g ai/ha Postemergence) | Plant response rating, Corn ([3]; 31 g ai/ha Preemergence) | Plant response rating, Corn ([3]; 62 g ai/ha Preemergence) | Plant response rating, Corn ([3]; 125 g ai/ha Preemergence) | Plant response rating, Panicum, Fall ([4]; 8 g ai/ha Preemergence) | Plant response rating, Panicum, Fall ([4]; 16 g ai/ha Postemergence) | Plant response rating, Panicum, Fall ([4]; 31 g ai/ha Postemergence) | Plant response rating, Goosegrass ([5]; 8 g ai/ha Preemergence) | Plant response rating, Goosegrass ([5]; 16 g ai/ha Preemergence) | Plant response rating, Beggarticks ([6]; 8 g ai/ha Preemergence) | Plant response rating, Beggarticks ([6]; 16 g ai/ha Preemergence) | Plant response rating, Beggarticks ([6]; 31 g ai/ha Preemergence) | Plant response rating, Nightshade ([7]; 8 g ai/ha Preemergence) | Plant response rating, Pigweed, Palmer ([8]; 8 g ai/ha Preemergence) | Plant response rating, Pigweed, Palmer ([8]; 16 g ai/ha Preemergence) | Plant response rating, Pigweed, Palmer ([8]; 31 g ai/ha Preemergence) | Plant response rating, Sandbur ([9]; 8 g ai/ha Postemergence) | Plant response rating, Sandbur ([9]; 8 g ai/ha Preemergence) | Plant response rating, Sandbur ([9]; 16 g ai/ha Postemergence) | Plant response rating, Sandbur ([9]; 16 g ai/ha Preemergence) | Plant response rating, Sandbur ([9]; 31 g ai/ha Postemergence) | Plant response rating, Sandbur ([9]; 31 g ai/ha Preemergence) | Plant response rating, Sandbur ([9]; 62 g ai/ha Postemergence) | Plant response rating, Sandbur ([9]; 125 g ai/ha Preemergence) | Plant response rating, Sandbur ([9]; Preemergence)
50: Plant response rating, Arrowleaf Sida ([2]; 8 g ai/ha Postemergence) | Plant response rating, Beggarticks ([6]; 31 g ai/ha Postemergence) | Plant response rating, Beggarticks ([6]; 62 g ai/ha Postemergence) | Plant response rating, Pigweed, Palmer ([8]; 8 g ai/ha Postemergence) | Plant response rating, Pigweed, Palmer ([8]; 16 g ai/ha Postemergence) | Plant response rating, Pigweed, Palmer ([8]; 31 g ai/ha Postemergence)
75: Plant response rating, Crabgrass, Brazil ([1]; 125 g ai/ha Preemergence) | Plant response rating, Arrowleaf Sida ([2]; 62 g ai/ha Postemergence) | Plant response rating, Arrowleaf Sida ([2]; 62 g ai/ha Preemergence) | Plant response rating, Goosegrass ([5]; 125 g ai/ha Preemergence)
98: Plant response rating, Arrowleaf Sida ([2]; 125 g ai/ha Preemergence) | Plant response rating, Nightshade ([7]; 125 g ai/ha Preemergence)
35: Plant response rating, Crabgrass, Brazil ([1]; 62 g ai/ha Preemergence) | Plant response rating, Arrowleaf Sida ([2]; 31 g ai/ha Preemergence) | Plant response rating, Panicum, Fall ([4]; 16 g ai/ha Preemergence) | Plant response rating, Pigweed, Palmer ([8]; 125 g ai/ha Preemergence) | Plant response rating, Pigweed, Palmer ([8]; Preemergence)
90: Plant response rating, Arrowleaf Sida ([2]; 125 g ai/ha Postemergence) | Plant response rating, Panicum, Fall ([4]; Preemergence) | Plant response rating, Nightshade ([7]; Preemergence)
20: Plant response rating, Arrowleaf Sida ([2]; 8 g ai/ha Preemergence) | Plant response rating, Beggarticks ([6]; 125 g ai/ha Preemergence) | Plant response rating, Velvetleaf ([10]; 8 g ai/ha Preemergence)
